The results in this text go back to paper PMC9500974, “Ultrasonic-Assisted Synthesis of Benzofuran Appended Oxadiazole Molecules as Tyrosinase Inhibitors: Mechanistic Approach through Enzyme Inhibition, Molecular Docking, Chemoinformatics, ADMET and Drug-Likeness Studies” (International Journal of Molecular Sciences, 2022).

The term IC50 denotes the point on the concentration scale where inhibition reaches its midpoint.

The target of this assay is bacterial tyrosinase (indigenously isolated from Bacillus subtilis NCTC 10400). Nature of the assay: Tyrosinase inhibition assay (dopachrome formation, OD 475 nm). The following applies: L-tyrosine substrate, 25 °C, triplicates, mean ± SD. The assay is classed as biochemical. The method, then:
The target derivatives were evaluated against tyrosinase enzyme (indigenously isolated from Bacillus subtilis NCTC 10400) inhibition. […] Structure-activity relationship (SAR) studies indicate that overall substituent-related tyrosinase activity decreases in the following way: 2-flouro > 2-chloro > 3,4-dichloro > 4-fluoro > 3,4-dimethyl > 2-methoxy > phenyl > 2,4-dimethyl > 2,5-dimethoxy > diethyl.
The bacterial tyrosinase enzyme isolation and preparation were fully described in our previously published paper and in other reported literature. A novel synthesized series of oxadiazole-based furan molecules were screened for anti-tyrosinase activity. Tyrosinase inhibition was investigated by modifying the reported methods of Kim. Briefly, phosphate buffer (0.05 M), L-tyrosine (765 µL; 2 mM) and tested compounds (35 µL) were incubated at ambient temperature for 10 min then bacterial tyrosinase (200 µL; about 48 U/mL) was added and the whole assay solution was allowed to stand at 25 °C for 2 min. The formation of dopachrome was monitored after incubation (2 min) by measuring the increase in optical density (OD) at λmax 475 nm. The stock solution for the entire synthesized series of oxadiazole-based furan moieties (1 mM) was prepared in DMSO (dimethyl sulfoxide). Five different dilutions of each oxadiazole-based furan moiety was prepared. Ascorbic acid (1 mM) was utilized for the standard tyrosinase inhibitor, and the values were expressed as IC50, the concentration of tested samples which caused the 50% inhibition. The percentage (%) of bacterial tyrosinase inhibitory activity was determine by utilizing the formula:(2) % Inhibition=A−BA×100
Here, A represents control enzyme, i.e., without inhibitor, while B represented the test sample, i.e., inhibitor.
The Prism software was used to analyze statistical data, while the results were measured in triplicates and depicted as mean ± SD.
`O=C1O[C@H]([C@@H](O)CO)C(O)=C1O` [Ascorbic acid, reference compound]: it took 11.5 ± 1 µM to reach half-maximal inhibition (IC50).

On to `O=C(CSc1nnc(-c2cc3cc(Br)ccc3o2)o1)Nc1ccccc1F` [Compound 5a, 2-((5-(5-Bromobenzofuran-2-yl)-1,3,4-oxadiazol-2-yl)thio)-N-(2-fluorophenyl)acetamide], for which 11 ± 0.25 µM corresponded to half-maximal inhibition (IC50).

In turn, `O=C(CSc1nnc(-c2cc3cc(Br)ccc3o2)o1)Nc1ccccc1Cl` [Compound 5b, 2-((5-(5-Bromobenzofuran-2-yl)-1,3,4-oxadiazol-2-yl)thio)-N-(2-chlorophenyl)acetamide] showed an IC50 of 12.4 µM. `O=C(CSc1nnc(-c2cc3cc(Br)ccc3o2)o1)Nc1ccc(Cl)c(Cl)c1` [Compound 5c, 2-((5-(5-Bromobenzofuran-2-yl)-1,3,4-oxadiazol-2-yl)thio)-N-(3,4-dichlorophenyl)acetamide] showed a 50% inhibitory concentration (IC50) of 12.7 µM. In the case of `O=C(CSc1nnc(-c2cc3cc(Br)ccc3o2)o1)Nc1ccc(F)cc1` [Compound 5d, 2-((5-(5-Bromobenzofuran-2-yl)-1,3,4-oxadiazol-2-yl)thio)-N-(4-fluorophenyl)acetamide] it was 15.5 µM; in that of `Cc1ccc(NC(=O)CSc2nnc(-c3cc4cc(Br)ccc4o3)o2)cc1C` [Compound 5e, 2-((5-(5-Bromobenzofuran-2-yl)-1,3,4-oxadiazol-2-yl)thio)-N-(3,4-dimethylphenyl)acetamide], 25 ± 0.75 µM; in that of `COc1ccccc1NC(=O)CSc1nnc(-c2cc3cc(Br)ccc3o2)o1` [Compound 5f, 2-((5-(5-Bromobenzofuran-2-yl)-1,3,4-oxadiazol-2-yl)thio)-N-(2-methoxyphenyl)acetamide], 27 ± 1 µM.

For `O=C(CSc1nnc(-c2cc3cc(Br)ccc3o2)o1)Nc1ccccc1` [Compound 5g, 2-((5-(5-Bromobenzofuran-2-yl)-1,3,4-oxadiazol-2-yl)thio)-N-phenylacetamide], 30 ± 1.5 µM corresponded to half-maximal inhibition (IC50). `Cc1ccc(NC(=O)CSc2nnc(-c3cc4cc(Br)ccc4o3)o2)c(C)c1` [Compound 5h, 2-((5-(5-Bromobenzofuran-2-yl)-1,3,4-oxadiazol-2-yl)thio)-N-(2,4-dimethylphenyl)acetamide]: the IC50 was found to be 36 ± 0.25 µM. Turning to `COc1ccc(OC)c(NC(=O)CSc2nnc(-c3cc4cc(Br)ccc4o3)o2)c1` [Compound 5i, 2-((5-(5-Bromobenzofuran-2-yl)-1,3,4-oxadiazol-2-yl)thio)-N-(2,5-dimethoxyphenyl)acetamide], the half-maximal inhibitory concentration (IC50) is 48 ± 0.96 µM. For the molecule `CCN(CC)C(=O)CSc1nnc(-c2cc3ccccc3o2)o1` [Compound 5j], half-maximal inhibition (IC50) required 49.5 ± 0.92 µM.
